The experiment concerns Male Sprague-Dawley rats. In words: Rat ferric chloride assay of thrombotic occlusion of the carotid artery. Format: in vivo. The note with it: continuous intravenous infusion 10 µg/kg/min. The method, then: Studies of 3-(2-Phenylethylamino)-6-methyl-1-(2-amino-6-methyl-5-methylenecarboxamidomethylpyridinyl)-2-pyridinone using the following rat ferric chloride assay substantially as described in Thrombosis Research, No. 60, page 269(1990) by Kurtz et al were used to determine in vivo activity of the thrombin inhibitors of the invention. Male Sprague-Dawley rats (body weights 200-350 grams) were anesthetized with dial-urethane solution (0.1 ml/100 gm body weight i.p.), and a lateral tail vein was cannulated with a 23 gauge needle connected to a 12 inch length of PE50 tubing. The tubing was attached to a 3-way valve by a tubing adapter. Saline (control) or test compound, as appropriate, was administered via the tail vein catheter. A tracheostomy was performed with a 0.75 inch length of PE205 tubing. The right carotid artery is exposed and a 1.3 mm diameter Doppler flow probe was placed on the vessel. Body temperature was maintained at 37°C using a heat lamp.
6 rats were randomized to continuous intravenous infusions of saline or test compound administered via the tail vein. Test compound was administered at a rate of 10 µg/kg/min. Treatment infusions were initiated 60 min before the placement of a 3 mm square piece of Whatman No. 1 filter paper saturated with 35% FeCl3 onto the exposed carotid artery distal to the flow probe. […]

Turning to “3-(2-Phenylethylamino)-6-methyl-1-(2-amino-6-methyl-5-methylenecarboxamidomethylpyridinyl)-2-pyridinone [Example LXXXII]”, the “rats showing evidence of thrombotic occlusion” value (observed up to 90 minutes after application of FeCl3) is given as “None”. Besides, the “efficacy against thrombotic occlusion” value (started 60 min before 35% FeCl3 on carotid artery) is “fully efficacious”.

The record behind these values is patent publication EP0900207B1, “PYRAZINONE THROMBIN INHIBITORS” (MERCK & CO., INC., priority 1996, dated 1997).
